Measured values published in patent publication US11339130B1 (Blade Therapeutics, Inc., priority 2016, dated 2022).
Like-named read-outs stand apart in the source and are kept apart here.

Tests used:
[1] = test system: Calpain activity in SH-SY5Y cells; assay: SH-SY5Y + AMC fluorescence assay (Suc-LLVY-AMC substrate); type: cell-based
Human Calpain 2/NS1 = target: T1, Human Calpain 2/NS1 (Homo sapiens, UniProt P17655); assay: Calpain inhibition continuous fluorescence (FRET) assay, Human Calpain 2/NS1; type: biochemical; details: read-out: Human Calpain 2/NS1 IC50
T1 sequence (P17655 1-700): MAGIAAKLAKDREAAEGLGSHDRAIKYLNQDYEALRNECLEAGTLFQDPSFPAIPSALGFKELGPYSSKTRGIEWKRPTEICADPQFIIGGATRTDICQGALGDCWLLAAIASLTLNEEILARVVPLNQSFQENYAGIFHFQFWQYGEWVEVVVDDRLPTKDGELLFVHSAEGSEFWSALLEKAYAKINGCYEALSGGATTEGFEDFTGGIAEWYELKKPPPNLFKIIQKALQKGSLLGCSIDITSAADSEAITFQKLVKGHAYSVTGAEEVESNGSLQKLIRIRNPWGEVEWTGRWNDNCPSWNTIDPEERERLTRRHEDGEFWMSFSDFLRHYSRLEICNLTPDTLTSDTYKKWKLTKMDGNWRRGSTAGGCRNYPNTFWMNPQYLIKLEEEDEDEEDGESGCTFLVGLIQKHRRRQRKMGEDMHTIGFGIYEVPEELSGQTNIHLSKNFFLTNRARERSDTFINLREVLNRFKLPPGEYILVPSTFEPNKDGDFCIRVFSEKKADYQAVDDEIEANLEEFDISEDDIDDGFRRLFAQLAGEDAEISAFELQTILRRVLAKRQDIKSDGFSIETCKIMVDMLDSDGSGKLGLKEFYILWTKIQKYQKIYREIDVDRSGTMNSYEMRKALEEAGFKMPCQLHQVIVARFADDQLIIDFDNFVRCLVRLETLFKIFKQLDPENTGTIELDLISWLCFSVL
T1 sequence (P04632 1-268 partner): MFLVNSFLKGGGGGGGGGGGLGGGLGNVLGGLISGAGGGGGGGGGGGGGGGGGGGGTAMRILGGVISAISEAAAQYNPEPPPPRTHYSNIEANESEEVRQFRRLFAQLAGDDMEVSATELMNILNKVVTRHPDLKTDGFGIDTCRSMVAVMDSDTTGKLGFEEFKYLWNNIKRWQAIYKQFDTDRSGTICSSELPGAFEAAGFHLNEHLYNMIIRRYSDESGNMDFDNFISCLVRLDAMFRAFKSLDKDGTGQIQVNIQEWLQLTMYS
How it was run: (§1)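 Fluorescence increase from the cleaved 5-FAM/QXL 520 substrate, read at 490/520 nm, gave activity. Calcium was supplied with the substrate to activate the enzyme in situ after a 25C enzyme-inhibitor preincubation, and IC50s were fit from initial slopes.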

Human Calpain 1/NS1 = target: T2, Human Calpain 1/NS1 (Homo sapiens, UniProt P07384); assay: Calpain inhibition continuous fluorescence (FRET) assay, Human Calpain 1/NS1; type: biochemical; details: read-out: Human Calpain 1/NS1 IC50
T2 sequence (P07384 1-714): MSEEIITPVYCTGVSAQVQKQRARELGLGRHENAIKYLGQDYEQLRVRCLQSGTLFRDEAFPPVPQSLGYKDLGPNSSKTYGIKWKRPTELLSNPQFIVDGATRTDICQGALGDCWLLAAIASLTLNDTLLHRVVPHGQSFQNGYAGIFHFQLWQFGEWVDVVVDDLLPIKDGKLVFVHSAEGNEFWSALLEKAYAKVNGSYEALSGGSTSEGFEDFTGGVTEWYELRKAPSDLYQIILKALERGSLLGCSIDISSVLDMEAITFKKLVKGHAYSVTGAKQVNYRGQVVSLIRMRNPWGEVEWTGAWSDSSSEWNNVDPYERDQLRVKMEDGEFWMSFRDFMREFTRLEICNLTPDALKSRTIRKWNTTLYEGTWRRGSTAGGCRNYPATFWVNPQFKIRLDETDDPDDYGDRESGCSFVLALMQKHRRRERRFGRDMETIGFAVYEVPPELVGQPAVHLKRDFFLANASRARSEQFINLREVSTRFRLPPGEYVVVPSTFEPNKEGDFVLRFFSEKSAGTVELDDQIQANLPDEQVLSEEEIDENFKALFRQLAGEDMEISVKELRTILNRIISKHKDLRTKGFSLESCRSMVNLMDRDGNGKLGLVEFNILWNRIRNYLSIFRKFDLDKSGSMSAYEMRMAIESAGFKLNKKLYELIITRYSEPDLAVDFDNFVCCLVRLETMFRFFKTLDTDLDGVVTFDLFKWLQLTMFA
T2 sequence (P04632 1-268 partner): T1 sequence (P04632 1-268 partner)
How it was run: as §1

Human Calpain 9/NS1 = target: T3, Human Calpain 9/NS1 (Homo sapiens, UniProt O14815); assay: Calpain inhibition continuous fluorescence (FRET) assay, Human Calpain 9/NS1; type: biochemical; details: read-out: Human Calpain 9/NS1 IC50
T3 sequence (O14815 1-690): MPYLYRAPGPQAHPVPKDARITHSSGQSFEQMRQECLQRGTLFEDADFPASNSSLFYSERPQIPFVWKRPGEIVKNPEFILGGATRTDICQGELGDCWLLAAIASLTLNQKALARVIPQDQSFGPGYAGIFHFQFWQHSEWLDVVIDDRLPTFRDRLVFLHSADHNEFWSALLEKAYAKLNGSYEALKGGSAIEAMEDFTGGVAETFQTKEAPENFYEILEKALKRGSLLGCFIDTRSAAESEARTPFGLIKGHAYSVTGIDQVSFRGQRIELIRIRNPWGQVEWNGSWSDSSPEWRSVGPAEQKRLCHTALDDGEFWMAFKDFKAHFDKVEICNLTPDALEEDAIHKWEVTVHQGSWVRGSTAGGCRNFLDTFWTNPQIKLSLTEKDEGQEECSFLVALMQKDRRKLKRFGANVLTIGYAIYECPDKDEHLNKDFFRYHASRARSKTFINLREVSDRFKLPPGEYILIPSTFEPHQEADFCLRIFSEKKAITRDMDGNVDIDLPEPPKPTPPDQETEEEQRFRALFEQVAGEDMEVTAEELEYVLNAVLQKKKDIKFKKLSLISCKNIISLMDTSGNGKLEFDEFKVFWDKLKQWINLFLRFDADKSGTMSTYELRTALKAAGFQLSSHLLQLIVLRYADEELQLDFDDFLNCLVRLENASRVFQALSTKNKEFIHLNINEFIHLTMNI
T3 sequence (P04632 1-268 partner): T1 sequence (P04632 1-268 partner)
How it was run: as §1

[2] = Column E, read-out: SH-SY5Y + AMC IC50

With `O=C[C@H](Cc1ccccc1)NC(=O)c1scnc1-c1ccccc1` [Compound 6, (S)—N-(1-oxo-3-phenylpropan-2-yl)-4-phenylthiazole-5-carboxamide] the IC50 [1, 2] was > 25 µM, the IC50 (Human Calpain 2/NS1; Column B) was < 3 µM and the IC50 (Human Calpain 1/NS1; Column A) was < 3 µM. The IC50 (Human Calpain 9/NS1; Column C) was < 3 µM.
In the case of `O=C[C@H](Cc1ccccc1)NC(=O)c1csnc1-c1ccccc1` [Compound 9, (S)—N-(1-oxo-3-phenylpropan-2-yl)-3-phenylisothiazole-4-carboxamide], the IC50 [1, 2] is reported as 10 to 25 µM, the IC50 (Human Calpain 2/NS1; Column B) is reported as < 3 µM and the IC50 (Human Calpain 1/NS1; Column A) is reported as < 3 µM. For the same compound, the IC50 (Human Calpain 9/NS1; Column C) was < 3 µM.
With `Cc1nc(-c2ccccc2)c(C(=O)N[C@@H](Cc2ccccc2)C(=O)C(N)=O)s1` [Compound 25, (S)—N-(4-amino-3,4-dioxo-1-phenylbutan-2-yl)-2-methyl-4-phenylthiazole-5-carboxamide] the IC50 [1, 2] was 10 to 25 µM, the IC50 (Human Calpain 2/NS1; Column B) was < 3 µM and the IC50 (Human Calpain 1/NS1; Column A) was < 3 µM. The IC50 (Human Calpain 9/NS1; Column C) was < 3 µM.
`Cc1cc(C(=O)N[C@@H](Cc2ccccc2)C(=O)C(N)=O)n(-c2cccc(C(F)(F)F)n2)n1` [Compound 59] was tested, and the IC50 [1, 2] was < 10 µM, the IC50 (Human Calpain 2/NS1; Column B) was < 3 µM and the IC50 (Human Calpain 1/NS1; Column A) was < 3 µM. The IC50 (Human Calpain 9/NS1; Column C) was < 3 µM.
`COC(=O)NCc1cccc(-n2nc(C)cc2C(=O)N[C@@H](Cc2ccccc2)C(=O)C(N)=O)c1` [Compound 140, Methyl (S)-(3-(5-((4-amino-3,4-dioxo-1-phenylbutan-2-yl)carbamoyl)-3-methyl-1H-pyrazol-1-yl)benzyl)carbamate] was tested, and the IC50 ([1]; read-out: SH-SY5Y + AMC IC50, Column E) was 10 to 25 µM, the IC50 (Human Calpain 2/NS1; Column B) was < 3 µM and the IC50 (Human Calpain 1/NS1; Column A) was < 3 µM. The IC50 (Human Calpain 9/NS1; Column C) was < 3 µM.
`Cn1cc(C(=O)N[C@@H](Cc2ccccc2)C(=O)C(N)=O)c(-c2cccc(OC(F)(F)F)c2)n1` [Compound 184, (S)—N-(4-amino-3,4-dioxo-1-phenylbutan-2-yl)-1-methyl-3-(3-(trifluoromethoxy)phenyl)-1H-pyrazole-4-carboxamide] was tested, and the IC50 [1, 2] was > 25 µM, the IC50 (Human Calpain 2/NS1; Column B) was < 3 µM and the IC50 (Human Calpain 1/NS1; Column A) was < 3 µM. For the same compound, the IC50 (Human Calpain 9/NS1; Column C) was < 3 µM.
In the case of `Cc1cc(C(=O)N[C@@H](Cc2ccccc2)C(=O)C(=O)NC2CC2)n(-c2nc(-c3ccccc3)cs2)n1` [Compound 203, (S)—N-(4-(cyclopropylamino)-3,4-dioxo-1-phenylbutan-2-yl)-3-methyl-1-(4-phenylthiazol-2-yl)-1H-pyrazole-5-carboxamide], the IC50 [1, 2] is reported as > 25 µM, the IC50 (Human Calpain 2/NS1; Column B) is reported as < 3 µM and the IC50 (Human Calpain 1/NS1; Column A) is reported as < 3 µM. The IC50 (Human Calpain 9/NS1; Column C) was > 10 µM.
`Cc1cc(C(=O)N[C@@H](Cc2ccccc2)C(=O)C(N)=O)n(-c2cccc(-c3ccccc3F)c2)n1` [Compound 214, (S)—N-(4-amino-3,4-dioxo-1-phenylbutan-2-yl)-1-(2′-fluoro-[1,1′-biphenyl]-3-yl)-3-methyl-1H-pyrazole-5-carboxamide] was tested, and the IC50 [1, 2] was > 25 µM, the IC50 (Human Calpain 2/NS1; Column B) was < 3 µM and the IC50 (Human Calpain 1/NS1; Column A) was < 3 µM. The IC50 (Human Calpain 9/NS1; Column C) was < 3 µM.
With `Cn1cc(C(=O)NC(Cc2ccccc2)C(=O)C(N)=O)c(C2CCCN(C(=O)OC(C)(C)C)C2)n1` (centres unmarked) [Compound 624, Tert-Butyl 3-(4-((4-amino-3,4-dioxo-1-phenylbutan-2-yl)carbamoyl)-1-methyl-1H-pyrazol-3-yl)piperidine-1-carboxylate] the IC50 (Human Calpain 2/NS1) was < 3 µM, the IC50 (Human Calpain 1/NS1) was < 3 µM and the IC50 (Human Calpain 9/NS1) was < 3 µM.
For `Cn1cc(C(=O)NC(Cc2ccccc2)C(=O)C(N)=O)c(-c2ccc3c(c2)OCCCO3)n1` (centres unmarked) [Compound 625, N-(4-amino-3,4-dioxo-1-phenylbutan-2-yl)-3-(3,4-dihydro-2H-benzo[b][1,4]dioxepin-7-yl)-1-methyl-1H-pyrazole-4-carboxamide], the IC50 (Human Calpain 2/NS1) was < 3 µM, the IC50 (Human Calpain 1/NS1) was < 3 µM and the IC50 (Human Calpain 9/NS1) was < 3 µM.
For `Cn1cc(-c2nn(C)cc2C(=O)NC(Cc2ccccc2)C(=O)C(N)=O)cn1` (centres unmarked) [Compound 626, N-(4-amino-3,4-dioxo-1-phenylbutan-2-yl)-1,1′-dimethyl-1H,1′H-[3,4′-bipyrazole]-4-carboxamide], the IC50 (Human Calpain 2/NS1) was < 3 µM, the IC50 (Human Calpain 1/NS1) was < 3 µM and the IC50 (Human Calpain 9/NS1) was < 3 µM.
In the case of `Cn1cc(C(=O)NC(Cc2ccccc2)C(=O)C(N)=O)c(C2CCOC2)n1` (centres unmarked) [Compound 627, N-(4-amino-3,4-dioxo-1-phenylbutan-2-yl)-1-methyl-3-(tetrahydrofuran-3-yl)-1H-pyrazole-4-carboxamide], the IC50 (Human Calpain 2/NS1) is reported as < 3 µM, the IC50 (Human Calpain 1/NS1) is reported as 3 to 10 µM and the IC50 (Human Calpain 9/NS1) is reported as 3 to 10 µM.
`Cn1cc(C(=O)NC(Cc2ccccc2)C(=O)C(N)=O)c(-c2coc3ccccc23)n1` (centres unmarked) [Compound 628, N-(4-amino-3,4-dioxo-1-phenylbutan-2-yl)-3-(benzofuran-3-yl)-1-methyl-1H-pyrazole-4-carboxamide] was tested, and the IC50 (Human Calpain 2/NS1) was < 3 µM, the IC50 (Human Calpain 1/NS1) was < 3 µM and the IC50 (Human Calpain 9/NS1) was < 3 µM.
With `NC(=O)C(=O)C(Cc1ccccc1)NC(=O)c1cn(C(F)F)nc1-c1ccc2ccncc2c1` (centres unmarked) [Compound 630, N-(4-amino-3,4-dioxo-1-phenylbutan-2-yl)-1-(difluoromethyl)-3-(isoquinolin-7-yl)-1H-pyrazole-4-carboxamide] the IC50 (Human Calpain 2/NS1) was < 3 µM, the IC50 (Human Calpain 1/NS1) was < 3 µM and the IC50 (Human Calpain 9/NS1) was < 3 µM.
In the case of `Cc1cc(C(=O)NC(Cc2ccccc2)C(=O)C(=O)NC2CC2)n(-c2ccncc2)n1` (centres unmarked) [compound 210], the IC50 (Human Calpain 2/NS1; Column B) is reported as < 3 µM, the IC50 (Human Calpain 1/NS1; Column A) is reported as < 3 µM and the IC50 (Human Calpain 9/NS1; Column C) is reported as < 3 µM.
In the case of “(S)—N-(4-amino-1-(3,5-dimethylphenyl)-3,4-dioxobutan-2-yl)-3-methyl-5-phenylisoxazole-4-carboxamide [Compound 98]”, the IC50 (Human Calpain 2/NS1; Column B) is reported as < 3 µM, the IC50 (Human Calpain 1/NS1; Column A) is reported as < 3 µM and the IC50 (Human Calpain 9/NS1; Column C) is reported as < 3 µM.
For “(S)—N-(4-amino-3,4-dioxo-1-phenylbutan-2-yl)-1-(tert-butyl)-3-methyl-1H-pyrazole-5-carboxamide [Compound 310]”, the IC50 (Human Calpain 2/NS1) was < 3 µM, the IC50 (Human Calpain 1/NS1) was < 3 µM and the IC50 (Human Calpain 9/NS1) was 3 to 10 µM.
In the case of “(S)—N-(4-amino-3,4-dioxo-1-phenylbutan-2-yl)-4-chloro-1-ethyl-3-methyl-1H-pyrazole-5-carboxamide [Compound 312]”, the IC50 (Human Calpain 2/NS1) is reported as < 3 µM, the IC50 (Human Calpain 1/NS1) is reported as < 3 µM and the IC50 (Human Calpain 9/NS1) is reported as 3 to 10 µM.
“N-(4-amino-3,4-dioxo-1-phenylbutan-2-yl)-3-(isoquinolin-3-yl)-1-methyl-1H-pyrazole-4-carboxamide [Compound 629]” was tested, and the IC50 (Human Calpain 2/NS1) was < 3 µM, the IC50 (Human Calpain 1/NS1) was < 3 µM and the IC50 (Human Calpain 9/NS1) was < 3 µM.
